Test [1] deals with MLL-AF9 transformed cells. Put plainly: In vitro drug treatment of primary murine hematopoietic cells transformed by MLL-AF9 (RTTA). It counts as cell-based, mouse. On the procedure:
Transduction using concentrated viral supernatant expressing the oncogene of interest was carried out by centrifugation (spinoculation) at 800 g at 32° C. for 2 hours in the presence of 5 μg ml^-1 polybrene (Sigma-Aldrich). Cells were subsequently plated in 1% methylcellulose medium ([…]; Stem Cell Technologies) containing 20 ngml^-1 SCF, 10 ngml^-1 IL-3, 10 ngml^-1 IL-6 and 10 ngml^-1 granulocyte macrophage colony-stimulating factor (GM-CSF) and appropriate selection antibiotic. Colonies were counted after 7 days of culture and replated every 6-7 days at 5×103-1.5×10^4 cell density. Re-plating was performed weekly to generate primary cell lines for further analysis. After the third or fourth round of plating, cells were cultured in R20/20 medium (RPMI 1640, 20% FCS, 20% WEHI-conditioned medium, 2 mM L-glutamine, 100 U/ml penicillin, and 100 μg/ml streptomycin) supplemented with 20 ngml^-1 stem cell factor (SCF), 10 ngml^-1 interleukin (IL)-3, and 10 ngml^-1 IL-6 to establish cell lines. All recombinant murine cytokines were from PeprotechEC. […] Colonies were scored 6-7 days after plating. For other in vitro studies, mouse leukemic cells and primary AML cell lines were subjected to continuously Olaparib (1 μM) or LiCl (8 mM) treatment in liquid culture for whole duration as indicated in the figures or figure legends. For human leukemic cell lines, experiments were performed as described above with 5 μM Olaparib. Cells were cytospun onto a glass slide at 400 g for 5 minutes and then fixed for 10 minutes with 2% formaldehyde/0.2% glutaraldehyde (Sigma Aldrich). Cells were then washed with PBS, and then incubated at 37° C. for at least 2 hours with a staining solution (30 mM Citric Acid/Phosphate buffer, 5 mM K4Fe(CN)6, 5 mM K3Fe(CN)6, 150 mM NaCl, 2 mM MgCl2, 1 mg/ml X-Gal) (All reagents from Sigma-Aldrich)62. Cells were counted in at least 5 fields for each slide, for a total of over 100 cells. The percentage of senescent cells was calculated by the percentage of the number of blue cell in the field. Cells were cytospun onto a glass slide at 400 g for 5 minutes and then fixed for 30 minutes in 4% PFA and permeabilized and blocked in 0.8% Tx-100, 10% FBS/1% BSA (Sigma-Aldrich) in PBS for 15 min at room temperature. […] Cells were counted in at least 5 fields for each slide, for a total of over 100 cells per condition. […] Cells were counted in at least 5 fields for each slide, for a total of over 100 cells per condition. […] Cells were then washed in PBS and the differentiated cells were indicated by the deposition of dark blue insoluble formazan (NBT positive cells) and the percentage of differentiated cells were counted under microscopy. At least 200 cells were counted in most of the cases.

A further test has as its system THP1 (MLL-AF9). Nature of the test: In vitro drug treatment of human leukemic cell line THP1. It counts as cell-based. As to the method: NB4-LR2 and THP1 cell lines (kindly provided by Dr Arthur Zelent and Professor Mel Greaves respectively) were cultured in RPMI (Invitrogen) supplemented with 10% selected FBS (R10), 2 mM L-Glutamine. Kasumi cell line (kindly provided by Dr Olaf Heidenreich) was cultured in RPMI-Hepes modified (Sigma) supplemented with 20% selected FBS and 2 mM L-[…]). Cell lines were validated by qPCR for their respective oncogenes. NIH3T3 and GP2 cell line was cultured in DMEM (Invitrogen) supplemented with 10% selected FBS and 2 mM L-Glutamine. Human primary AML cells were cultured in IMEM (Invitrogen) supplemented with […], 2 mM L-Glutamine, 10 ng/mL each of human cytokines, IL3, IL6, SCF, FLT3 ligand, and TPO. Cells were kept at 37° C. and 5% CO2. Use of human primary cells was approved by King's College London committee and consents of the patients were obtained. […] Colonies were scored 6-7 days after plating. For other in vitro studies, mouse leukemic cells and primary AML cell lines were subjected to continuously Olaparib (1 μM) or LiCl (8 mM) treatment in liquid culture for whole duration as indicated in the figures or figure legends. For human leukemic cell lines, experiments were performed as described above with 5 μM Olaparib. For each assay 1×10^5 cells were collected, washed in PBS and re-suspended in Annexin V binding solution (25 mM Hepes, 140 mM KCl, 2.5 mM CaCl2 pH 7.2). After centrifugation at 500 g for five minutes the cells were incubated with the Annexin V Binding solution containing 0.25 ug/ml mouse anti Annexin V-FITC antibody (Biolegend 640906) and 1 ug/ml propidium iodide in the dark for 30 minutes at 4° C. Samples were then washed in PBS analysed at the FACS LSRII (BD Biosciences Pharmingen) with FACS Diva. Cells were cytospun onto a glass slide at 400 g for 5 minutes and then fixed for 10 minutes with 2% formaldehyde/0.2% glutaraldehyde (Sigma Aldrich). […] Cells were counted in at least 5 fields for each slide, for a total of over 100 cells. The percentage of senescent cells was calculated by the percentage of the number of blue cell in the field.

As to `O=C(c1cc(Cc2n[nH]c(=O)c3ccccc23)ccc1F)N1CCN(C(=O)C2CC2)CC1` [Olaparib, 4-[(3-[(4-cyclopropylcarbonyl)piperazin-4-yl]carbonyl)-4-fluorophenyl]methyl(2H)-phthalazin-1-one], the “impact on colony forming ability” value in test [1] (1 uM Olaparib, methylcellulose 7 days) is “little impact”. In addition, the “differentiation, G1 arrest, senescence, apoptosis effects” value in test [1] (PARPi treatment) is reported as “none of these effects were observed”. Further, the “Rad51 recruitment to DNA damage sites (RAD51 foci)” value in test [1] (PARPi treatment for 6 hours) is recorded as “able to form RAD51 foci”. For the same compound, the “growth (relative proliferation) and differentiation” value in the test with THP1 (MLL-AF9) (counted on day 5 by trypan blue exclusion) is listed as “ineffective”. In addition, the colony forming ability entry in the test on THP1 (MLL-AF9) (methylcellulose 7 days, 5 μM Olaparib) was “did not affect”.

Source of the values: patent publication US10799501B2, “Combination of an inhibitor of PARP with an inhibitor of GSK-3 or DOT1L” (King's College London, priority 2015, dated 2020).
